The text below walks through data of US20060035811A1, “Methods of treating dry eye disease with lantibiotics” (priority 2002, published 2006).

In this experiment the test system is New Zealand (albino) rabbits. Description: Tear secretion in albino rabbits after topical instillation (Schirmer strips). It counts as in vivo. The settings on record: for Tear secretion % Mean (% of baseline) / Tear secretion (mm) Mean: 1×50 microliters, right eye. The procedure: New Zealand (albino) rabbits were the experimental model used to test the action of duramycin. Four animals were involved for each formulation: Duramycin was used in a formulation at 0.5 mg/ml dissolved in saline (0.9% sodium chloride) at pH between 6 and 7 and was compared with 0.9% sodium chloride and with 0.9% sodium chloride at pH between 6 and 7 (vehicle). Animals were randomly allocated into 3 groups of 4 animals each by a computer controlled program.
Aliquots (1×50 microliters) were administered using a micropipette into the right eyes while the left eyes remained untreated. Sampling was performed in the right eyes for a constant interval of 15 seconds before the instillation and at 15, 30, 60, 120, and 180 minutes after instillation. Tear secretion was collected and measured on treated eyes using Schimer strips.
Tear secretion, measured as the tear migration onto Schirmer strips for 15 seconds, was expressed in millimeters (mm) and in percents (%) of baseline values. The % of baseline values was the mean of individual %. T max is the time when the maximum mean value is obtained and is expressed in minutes (min).
Mean AUC0-180 min value (area under the curve from baseline to 180 min) is the mean of individual AUC0-180 min values calculated using the trapezoidal rule and is expressed in mm×min and in %×min.

The mark [1] stands for this setting: 15 min after instillation, 0.5 mg/ml.
Setting [2] is: 30 min after instillation, 0.5 mg/ml.
Where [3] appears, read: 60 min after instillation, 0.5 mg/ml.
The mark [4] stands for this setting: 120 min after instillation, 0.5 mg/ml.
Setting [5] is: 180 min after instillation, 0.5 mg/ml.
Where [6] appears, read: baseline to 180 min, trapezoidal rule, mean of individual values, 0.5 mg/ml.

With duramycin, the “Tear secretion % Mean (% of baseline)” value is on record as 100.0% (0 min (before instillation, baseline), 0.5 mg/ml); 329.2% under setting [1]; 459.4% under setting [2]; 260.4% under setting [3]; 157.3% under setting [4]; 245.8% under setting [5]. Also, the “Tear secretion (mm) Mean” value reads like this: (0 min (before instillation, baseline), 0.5 mg/ml, Schirmer strip 15 seconds) 2.8 mm; under setting [1], 6.0 mm; under setting [2], 9.4 mm; under setting [3], 4.8 mm; under setting [4], 3.5 mm; under setting [5], 4.9 mm. The “Increase of tear secretion compared with saline, based on AUC0-180 min in %” value (0.5 mg/ml vs saline treatment) is recorded as 3.56 times. Besides, the “Increase of tear secretion compared with saline, based on AUC0-180 min in mm” value (0.5 mg/ml vs saline treatment) was 1.92 times. In addition, the “Increase of tear secretion compared with saline, based on maximum value in %” value (0.5 mg/ml vs saline treatment) worked out at 4.59 times. For the same substance, where the note is “0.5 mg/ml vs saline treatment”, the “Increase of tear secretion compared with saline, based on maximum value in mm” value is 2.47 times. Moreover, the “Tmax (time when the maximum mean tear secretion is obtained)” value (after instillation, 0.5 mg/ml) is 30 min. Moreover, the “AUC 0-180 of tear secretion” value under setting [6] amounted to 891.6 mm × min. Besides, under setting [6], the “AUC 0-180 of tear secretion (% of baseline)” value is recorded as 44554.7 % × min.
